Reference: patent US20160369115A1, “POLARIZING PLATE COMPOSITION, POLARIZING PLATE PROTECTIVE FILM, POLARIZER, POLARIZING PLATE, LIQUID CRYSTAL DISPLAY DEVICE, AND COMPOUND USED IN THE LIQUID CRYSTAL DISPLAY DEVICE” (FUJIFILM Corporation, priority 2014, published 2016)

test: Solubility of additive in water; assay type: physicochemical; conditions: amount of the additive dissolving in 100 ml of pure water at 25° C.
Protocol: The amount of the additive dissolving in 100 ml of pure water at 25° C. was measured and evaluated according to the following criteria.

Row | Compound | Solubility in water
1 | COC(=O)Oc1[nH]c(=O)n(Cc2ccc(S(=O)(=O)[O-])cc2)c(=O)c1C=O.[Na+] [Example compound AAV] | A (Equal to or greater than 5 g)
2 | Nc1c(F)c(F)c(C(=O)O)c(F)c1F [Organic acid 2, reference compound] | B (Equal to or greater than 1 g and less than 5 g)
3 | O=C([O-])c1ccc(Cc2c(OCOCc3ccccc3)n(-c3ccccc3)c(=O)n(-c3ccccc3)c2=O)cc1.[Na+] [Example compound O] | B (Equal to or greater than 1 g and less than 5 g)
4 | COC(=O)Oc1c(Cc2ccccc2)c(=O)n(CS(=O)(=O)[O-])n1C.[Na+] [Example compound AH] | A (Equal to or greater than 5 g)
5 | COC(=O)Oc1[nH]c(=O)n(CCCS(=O)(=O)[O-])c(=O)c1Cc1ccc(C=O)cc1.[Na+] [Example compound AAC] | A (Equal to or greater than 5 g)
6 | COC(=O)Cc1c(Cc2ccc(S(=O)(=O)[O-])cc2S(=O)(=O)[O-])c(=O)[nH]c2ccccc12.[Na+].[Na+] [Example compound AJ] | A (Equal to or greater than 5 g)
7 | O=C(Oc1c(Cc2ccccc2S(=O)(=O)[O-])c(=O)n(-c2ccccc2)c(=O)n1-c1ccccc1)OC1c2ccccc2-c2ccccc21.[Na+] [Example compound H] | B (Equal to or greater than 1 g and less than 5 g)
8 | COC(=O)Oc1[nH]c(=O)n(Cc2ccc(B(O)O)cc2)c(=O)c1Cc1ccc(S(=O)(=O)[O-])cc1S(=O)(=O)[O-].[Na+].[Na+] [Example compound AAL] | A (Equal to or greater than 5 g)
9 | CCOC(=O)Oc1c(Cc2ccccc2S(=O)(=O)[O-])c(=O)n(-c2ccccc2)c(=O)n1-c1ccccc1.[Na+] [Example compound D] | A (Equal to or greater than 5 g)
10 | CC(C)[Si](Oc1c(Cc2ccccc2)c(=O)n(CS(=O)(=O)[O-])c(=O)n1C)(C(C)C)C(C)C.[Na+] [Example compound L] | A (Equal to or greater than 5 g)
11 | O=C1NC(=O)N(Cc2ccccc2)C(=O)C1c1ccccc1 (stereo not drawn) [Organic acid 1, reference compound] | C (Less than 1 g.)
12 | [Cl-].[Cl-].[Zn+2] [ZnCl2, reference compound] | A (Equal to or greater than 5 g)
13 | COC(=O)Oc1c(Cc2ccc(S(=O)(=O)[O-])cc2S(=O)(=O)[O-])c(=O)n(-c2ccccc2)c(=O)n1Cc1ccccc1.[Na+].[Na+] [Example compound B] | A (Equal to or greater than 5 g)
14 | COC(=O)Oc1[nH]c(=O)n(Cc2ccc(F)c(F)c2)c(=O)c1Cc1ccc(S(=O)(=O)[O-])cc1S(=O)(=O)[O-].[Na+].[Na+] [Example compound AAS] | A (Equal to or greater than 5 g)
15 | CCO[Si](CCCNC(=O)OCCn1c(=O)[nH]c(OC(=O)OC)c(Cc2ccc(S(=O)(=O)[O-])cc2S(=O)(=O)[O-])c1=O)(OCC)OCC.[Na+].[Na+] [Example compound AAP] | A (Equal to or greater than 5 g)
